In patent US20240335439A1, “USE OF AND METHOD FOR TELAPREVIR IN PREPARATION OF DRUG FOR TREATING AN ISCHEMIA/REPERFUSION INJURY AND CYTOPROTECTIVE DRUG” (THE THIRD XIANGYA HOSPITAL OF CENTRAL SOUTH UNIVERSITY, priority 2021, published 2024):

Legend:
[1] = tested on: SH-SY5Y nerve cells; assay: Hypoxia/reoxygenation injury of SH-SY5Y nerve cells, MTS viability and LDH release; format: cell-based; settings: hypoxia 8 h / reoxygenation 24 h, telaprevir 1, 5, 10 μM, vs Hypoxia
Procedure: The measurement followed the operating instructions of a commercially available lactate dehydrogenase kit (Shanghai Beyotime Biotechnology Co., Ltd., China). Groups were designed according to experimental requirements, and a background blank control group (without cells) and a maximum enzyme release group were additionally set. An LDH release reagent in a volume of 1/10 of the original medium was added to the maximum enzyme activity well group of the sample, and the culture continued for 1 hour. 120 μL of supernatant was pipetted from each well and added to a new 96-well plate, and 60 μL of LDH detection working solution was added to each well, followed by uniform mixing and incubation at room temperature for 30 minutes (in dark). The absorbance of the sample was measured at 490 nm. Calculation: LDH release rate of cells (%)=(absorbance of the drug treatment group-absorbance of the control group)/(absorbance of the maximum enzyme release group-absorbance of the control group)×100%. When the absorbance value of each group was calculated, the absorbance value of the background blank control group was first subtracted.
SH-SY5Y nerve cells were purchased from the Xiangya Cell Bank of Central South University. […]
Cell viability was detected by MTS and cell injury was detected by an LDH release rate. […]

[2] = tested on: myocardial ischemia/reperfusion injury mouse models; assay: Myocardial ischemia/reperfusion injury mouse model (LAD ligation 1 h, reperfusion 24 h); format: in vivo, C57BL/6J mice; settings: telaprevir 60 mg/kg after 30 minutes of ischemia, 24 h reperfusion
Procedure: Experimental animals: 7-week-old male C57BL/6J mice. The experimental animals were raised for one week in an environment with a temperature of 25° C., a relative humidity of 60%, free drinking water, and timed and quantified feeding, and then administered according to the requirements of each experimental group.
Method for building a myocardial ischemia/reperfusion mouse model: After an 8-week-old male C57BL/6J mouse was anesthetized by intraperitoneal injection with 0.3% pentobarbital sodium (20 mL/kg), a trachea cannula was inserted from the mouth and secured with a pressure-sensitive adhesive. […] The chest was opened, left anterior descending (LAD) branches were ligated with 8-0 sutures, myocardial infarction can be determined when the cardiac apex turned white, and the ligation was maintained for 1 hour. […] After staining, the staining solution was removed, the heart slices were washed with PBS once, immobilized with 4% paraformaldehyde for 24 hours, and then taken out, the staining situation was observed, photos were taken, and an ischemic area and an infarct area were measured by ImageJ software. […]
Blood and myocardial tissues were collected and relevant indicators were measured: myocardial infarct area in mice was measured and serum creatine kinase activity (CK activity) was detected. […]

SMILES: CCC[C@H](NC(=O)[C@@H]1[C@H]2CCC[C@H]2CN1C(=O)[C@@H](NC(=O)[C@@H](NC(=O)c1cnccn1)C1CCCCC1)C(C)(C)C)C(=O)C(=O)NC1CC1 [telaprevir]
- cell viability (MTS) of hypoxia/reoxygenation treated SH-SY5Y cells ([1]; FIG. 5A): significantly inhibit a decrease
- LDH release rate of hypoxia/reoxygenation treated SH-SY5Y cells ([1]; FIG. 5B): significantly inhibit
- serum creatine kinase activity ([2]; ##P<0.01 vs I/R, FIG. 1B): significantly reduce
- infarct area of myocardial tissues in mice (TTC staining, AOI/AOR) ([2]; vs I/R, FIG. 1A): significantly reduce
